Biological target: T1, human Werner helicase (WRN-BV08, Uniprot Q14191, amino acids 517-1235 with L1074F point mutation) (Homo sapiens, UniProt Q14191, L1074F)
T1 construct: Uniprot Q14191, amino acids 517-1235 with L1074F point mutation; TEV-cleavable 8×His (C, cleaved yes); made in house; host or cells: Sf9 insect cells (baculovirus)
Test: WRN (BV08) ADP-Glo Assay
Type: biochemical
Details: 0.15 nM WRN, 5 μM ATP, 0.1 nM DNA duplex, 15 min preincubation, 60 min at 25° C., pH 7.5, 1% DMSO; read-out: ADP-Glo_hWRN_IC50
Procedure, shortened: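 ADP-Glo luminescence read-out of ATP hydrolysis. Conditions: 0.15 nM WRN, 5 μM ATP, 0.1 nM DNA duplex, 1% DMSO, 60 min at 25 °C after 15 min compound preincubation. Max/min controls were DMSO and 20 μM NSC-617145; IC50 from four-parameter fit.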

T1 sequence (Q14191 with tags, fused parts or gaps L1074F limits assumed): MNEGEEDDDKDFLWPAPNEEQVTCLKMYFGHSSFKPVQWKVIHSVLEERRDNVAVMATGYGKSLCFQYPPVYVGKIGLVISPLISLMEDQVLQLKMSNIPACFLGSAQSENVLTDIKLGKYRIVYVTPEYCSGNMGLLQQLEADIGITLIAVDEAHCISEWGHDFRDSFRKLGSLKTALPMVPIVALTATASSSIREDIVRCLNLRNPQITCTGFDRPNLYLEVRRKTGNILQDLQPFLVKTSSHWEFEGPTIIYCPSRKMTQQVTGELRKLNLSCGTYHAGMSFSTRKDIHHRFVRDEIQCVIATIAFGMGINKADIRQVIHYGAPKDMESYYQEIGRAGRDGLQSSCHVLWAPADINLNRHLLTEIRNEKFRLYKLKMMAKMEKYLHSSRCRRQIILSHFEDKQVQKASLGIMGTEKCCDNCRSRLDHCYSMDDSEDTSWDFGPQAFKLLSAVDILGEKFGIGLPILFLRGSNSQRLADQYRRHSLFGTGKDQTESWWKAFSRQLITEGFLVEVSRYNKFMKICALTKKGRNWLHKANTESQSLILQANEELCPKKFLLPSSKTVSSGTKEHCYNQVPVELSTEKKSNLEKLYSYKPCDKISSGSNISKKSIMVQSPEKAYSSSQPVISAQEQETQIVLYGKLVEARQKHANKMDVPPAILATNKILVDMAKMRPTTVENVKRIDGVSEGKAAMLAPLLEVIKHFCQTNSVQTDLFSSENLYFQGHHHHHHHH

| Structure (SMILES) | IC50 |
| --- | --- |
| Cc1sc(CN(C(=O)Cc2ccc(-c3ccc(F)c(F)c3)cc2F)C2C=CS(=O)(=O)C2)nc1C1CC1 (centres unmarked) [I-754, N-[(4-cyclopropyl-5-methyl-1,3-thiazol-2-yl)methyl]-N-(1,1-dioxo-2,3-dihydro-1lambda6-thiophen-3-yl)-2-{3,3′,4′-trifluoro-[1,1′-biphenyl]-4-yl}acetamide] | 500 to 5000 nM |
| COc1ccc2c(c1)CC(C(=O)N(Cc1ccncc1)C1C=CS(=O)(=O)C1)CO2 (centres unmarked) [I-756, N-(1,1-dioxo-2,3-dihydro-1lambda6-thiophen-3-yl)-6-methoxy-N-[(pyridin-4-yl)methyl]-3,4-dihydro-2H-1-benzopyran-3-carboxamide] | > 50000 nM |
| O=C(Cc1ccc(S(F)(F)(F)(F)F)cc1)N(Cc1nn[nH]n1)C1C=CS(=O)(=O)C1 (centres unmarked) [I-757, N-(1,1-dioxo-2,3-dihydro-1lambda6-thiophen-3-yl)-2-[4-(pentafluoro-lambda6-sulfanyl)phenyl]-N-[(2H-1,2,3,4-tetrazol-5-yl)methyl]acetamide] | > 50000 nM |
| COc1cc(CN(C(=O)C(c2ccc(-c3ccc(F)c(F)c3)cc2F)n2cc(C(C)(C)O)cn2)[C@@H]2C=CS(=O)(=O)C2)ccn1 (stereo partly drawn) [I-758, N-[(3R)-1,1-dioxo-2,3-dihydro-1lambda6-thiophen-3-yl]-2-[4-(2-hydroxypropan-2-yl)-1H-pyrazol-1-yl]-N-[(2-methoxypyridin-4-yl)methyl]-2-{3,3′,4′-trifluoro-[1,1′-biphenyl]-4-yl}acetamide] | 500 to 5000 nM |
| O=C(Cn1cc(-c2ccc(F)c(F)c2)cn1)N(Cc1ccnc(N2CCOCC2)c1)C1C=CS(=O)(=O)C1 (centres unmarked) [I-759, 2-[4-(3,4-difluorophenyl)-1H-pyrazol-1-yl]-N-(1,1-dioxo-2,3-dihydro-1lambda6-thiophen-3-yl)-N-{[2-(morpholin-4-yl)pyridin-4-yl]methyl}acetamide] | 500 to 5000 nM |
| O=C(Cn1cc(-c2ccc(F)c(F)c2)cn1)N(Cc1ccnc(N2CCC2)c1)C1C=CS(=O)(=O)C1 (centres unmarked) [I-760, N-{[2-(azetidin-1-yl)pyridin-4-yl]methyl}-2-[4-(3,4-difluorophenyl)-1H-pyrazol-1-yl]-N-(1,1-dioxo-2,3-dihydro-1lambda6-thiophen-3-yl)acetamide] | < 500 nM |
| O=C(Cn1cc(-c2ccc(F)c(F)c2)cn1)N(Cc1ccnc(OCCN2CCOCC2)c1)C1C=CS(=O)(=O)C1 (centres unmarked) [I-761, 2-[4-(3,4-difluorophenyl)-1H-pyrazol-1-yl]-N-(1,1-dioxo-2,3-dihydro-1lambda6-thiophen-3-yl)-N-({2-[2-(morpholin-4-yl)ethoxy]pyridin-4-yl}methyl)acetamide] | < 500 nM |
| COc1ccc(CN(C(=O)Cn2cc(-c3ccc(F)c(F)c3)cn2)C2C=CS(=O)(=O)C2)cn1 (centres unmarked) [I-762, 2-[4-(3,4-difluorophenyl)-1H-pyrazol-1-yl]-N-(1,1-dioxo-2,3-dihydro-1lambda6-thiophen-3-yl)-N-[(6-methoxypyridin-3-yl)methyl]acetamide] | 500 to 5000 nM |
| COc1cc(CN(C(=O)Cn2cc(-c3cc(F)c(F)c(F)c3)cn2)[C@@H]2C=CS(=O)(=O)C2)ccn1 [I-764, N-[(3R)-1,1-dioxo-2,3-dihydro-1lambda6-thiophen-3-yl]-N-[(2-methoxypyridin-4-yl)methyl]-2-[4-(3,4,5-trifluorophenyl)-1H-pyrazol-1-yl]acetamide] | < 500 nM |
| COc1cc(CN(C(=O)Cn2nc3ccc(C(F)(F)F)cc3c2C)[C@@H]2C=CS(=O)(=O)C2)ccn1 [I-766, N-[(3R)-1,1-dioxo-2,3-dihydro-1lambda6-thiophen-3-yl]-N-[(2-methoxypyridin-4-yl)methyl]-2-[3-methyl-5-(trifluoromethyl)-2H-indazol-2-yl]acetamide] | 5000 to 10000 nM |
| CC(C)(O)COc1cc(CN(C(=O)Cc2ccc(S(F)(F)(F)(F)F)cc2)C2C=CS(=O)(=O)C2)ccn1 (centres unmarked) [I-768, N-(1,1-dioxo-2,3-dihydro-1lambda6-thiophen-3-yl)-N-{[2-(2-hydroxy-2-methylpropoxy)pyridin-4-yl]methyl}-2-[4-(pentafluoro-lambda6-sulfanyl)phenyl]acetamide] | < 500 nM |
| COc1cc(CN(C(=O)Cn2ncc3cc(C(F)(F)C(F)(F)F)ccc32)[C@@H]2C=CS(=O)(=O)C2)ccn1 [I-770, N-[(3R)-1,1-dioxo-2,3-dihydro-1lambda6-thiophen-3-yl]-N-[(2-methoxypyridin-4-yl)methyl]-2-[5-(1,1,2,2,2-pentafluoroethyl)-1H-indazol-1-yl]acetamide] | 500 to 5000 nM |
| COc1cc(CN(C(=O)Cn2cc3cc(C(F)(F)C(F)(F)F)ccc3n2)[C@@H]2C=CS(=O)(=O)C2)ccn1 [I-771, N-[(3R)-1,1-dioxo-2,3-dihydro-1lambda6-thiophen-3-yl]-N-[(2-methoxypyridin-4-yl)methyl]-2-[5-(1,1,2,2,2-pentafluoroethyl)-2H-indazol-2-yl]acetamide] | < 500 nM |
| O=C(Cn1cc(-c2cc(F)c(F)c(F)c2)cn1)N(Cc1ccnc(Oc2ccncc2)c1)C1C=CS(=O)(=O)C1 (centres unmarked) [I-772, N-(1,1-dioxo-2,3-dihydro-1lambda6-thiophen-3-yl)-N-{[2-(pyridin-4-yloxy)pyridin-4-yl]methyl}-2-[4-(3,4,5-trifluorophenyl)-1H-pyrazol-1-yl]acetamide] | < 500 nM |
| CN(Cc1ccncc1)C(=O)c1ccc(CN(C(=O)Cc2ccc(-c3ccc(F)c(F)c3)cc2F)C2C=CS(=O)(=O)C2)cc1 (centres unmarked) [I-778, 4-{[N-(1,1-dioxo-2,3-dihydro-1lambda6-thiophen-3-yl)-2-{3,3′,4′-trifluoro-[1,1′-biphenyl]-4-yl}acetamido]methyl}-N-methyl-N-[(pyridin-4-yl)methyl]benzamide] | 500 to 5000 nM |
| CN(C)C(=O)c1ccc(CN(C(=O)Cc2ccc(-c3ccc(F)c(F)c3)cc2F)C2C=CS(=O)(=O)C2)cc1 (centres unmarked) [I-779, 4-{[N-(1,1-dioxo-2,3-dihydro-1lambda6-thiophen-3-yl)-2-{3,3′,4′-trifluoro-[1,1′-biphenyl]-4-yl}acetamido]methyl}-N,N-dimethylbenzamide] | 500 to 5000 nM |
| O=C(c1ccc(CN(C(=O)Cc2ccc(-c3ccc(F)c(F)c3)cc2F)C2C=CS(=O)(=O)C2)cc1)N1CCOCC1 (centres unmarked) [I-780, N-(1,1-dioxo-2,3-dihydro-1lambda6-thiophen-3-yl)-N-{[4-(morpholine-4-carbonyl)phenyl]methyl}-2-{3,3′,4′-trifluoro-[1,1′-biphenyl]-4-yl}acetamide] | 500 to 5000 nM |
| O=C(Cn1cc(-c2cc(F)c(F)c(F)c2)cn1)N(Cc1ccc(Cc2ccncc2)cc1)C1C=CS(=O)(=O)C1 (centres unmarked) [I-782, N-(1,1-dioxo-2,3-dihydro-1lambda6-thiophen-3-yl)-N-({4-[(pyridin-4-yl)methyl]phenyl}methyl)-2-[4-(3,4,5-trifluorophenyl)-1H-pyrazol-1-yl]acetamide] | < 500 nM |
| O=C(Cn1cc(-c2cc(F)c(F)c(F)c2)cn1)N(Cc1ccc(OCc2ccncc2)cc1)C1C=CS(=O)(=O)C1 (centres unmarked) [I-783, N-(1,1-dioxo-2,3-dihydro-1lambda6-thiophen-3-yl)-N-({4-[(pyridin-4-yl)methoxy]phenyl}methyl)-2-[4-(3,4,5-trifluorophenyl)-1H-pyrazol-1-yl]acetamide] | < 500 nM |
| COc1cc(CN(C(=O)C2CCc3c([nH]c4cccc(Cl)c34)C2)[C@@H]2C=CS(=O)(=O)C2)ccn1 (stereo partly drawn) [I-785, 5-chloro-N-[(3R)-1,1-dioxo-2,3-dihydro-1lambda6-thiophen-3-yl]-N-[(2-methoxypyridin-4-yl)methyl]-2,3,4,9-tetrahydro-1H-carbazole-2-carboxamide] | > 50000 nM |
